“Also recorded” adds a separate entry of the source. Where two headings read alike, the source gives them in different places. Square brackets hold non-standard residues; d marks the D form. Ends that are not written are not given here. Abu = CC[C@H](N)C(=O)O
What was measured:
[1] = test system: Jurkat-A2402/K^b cells pulsed with the peptide; assay: CTL-inducing activity (immunogenicity) in HLA-A2402/K^b transgenic mouse, 51Cr release assay; assay type: in vivo; conditions: for immunogenicity (activity to induce CTLs; cytotoxic activity, % Specific Lysis): HLA-A2402/K^b transgenic mice (three per peptide) immunized s.c. with peptide + helper peptide in IFA, splenocytes stimulated in vitro 6 days, E/T ratio of 80; for immunogenicity (activity to induce CTLs; cytotoxic activity, % Specific Lysis) / induction of specific CTLs (cytotoxic activity, % Specific Lysis): peptide-pulsed vs non-pulsed Jurkat-A2402/K^b targets; for induction of specific CTLs (cytotoxic activity, % Specific Lysis): Reference 9: transgenic mouse (04-1 line) immunized with known HLA-A24-restricted cancer antigen peptide + helper peptide in IFA
Procedure: Specifically, HER-2/neu780-788 and helper peptide were adjusted to 40 mg/ml and 20 mg/ml, respectively, in DMSO and diluted with a physiological saline to 2 mg/ml and 1 mg/ml, respectively. They were mixed with an equal amount of Freund's incomplete adjuvant (Wako Pure Chemical Industries, Ltd.) using a glass syringe to prepare a water-in-oil emulsion. The resultant preparation (200 μl) was injected into a transgenic mouse (04-1 line) subcutaneously in the base of the tail for immunization. Seven days after the initiation of experiment, the spleen was removed and grounded on the frosted part of glass slide, and splenocytes were recovered and prepared. A portion of the splenocytes undergone hemolysis treatment with an ACK buffer (0.15 M NH4Cl, 10 mM KHCO3, 0.1 mM EDTA, pH 7.2-7.4) was exposed to X ray radiation (2,000 rad), pulsed with the above-mentioned peptide (100 μg/ml) for 1 hour, and seeded into a 24-well plate at 0.7×10^6/well. Non-radiated, non-peptide-pulsed splenocytes (7×10^6/well) were added together and stimulated again at 37° C. (final concentration of peptide, 1 μg/ml). In vitro stimulation was carried out for 6 days in […] of a culture solution (CTM culture solution) containing 10% FCS, 10 mM HEPES, 20 mM L-glutamine, 1 mM sodium pyruvate, 1 mM MEM nonessential amino acid, 1% MEM vitamin and 55 μM 2-mercaptoethanol in RPMI 1640 medium.
On the other hand, Jurkat-A2402/K^b cells prepared in Reference 8 were labeled with ^51Cr (3.7 MBq/10^6 cells) and pulsed with the peptide above at 100 μg/ml for one hour. The labeling was carried out over 2 hours, and 1 hour after initiation of labeling, peptide was added to make the final concentration 100 μg/ml. Cells that were not pulsed with peptide were prepared as control target cells.
CTL-inducing activity was determined by ^51Cr release assay (J. Immunol., 159:4753, 1997), wherein the previously prepared transgenic mouse splenocyte preparation was added to said Jurkat-A2402/K^b cells as the target cells.
Immunogenicity of each antigen peptide was evaluated using the HLA-A2402/K^b transgenic mouse as constructed in aforementioned References. For the evaluation of each peptide for its immunogenicity, three transgenic mice were immunized with one peptide.
Specifically, each antigen peptide and the helper peptide were adjusted to 40 mg/ml and 20 mg/ml, respectively, in DMSO, and diluted with a physiological saline to 2 mg/ml and 1 mg/ml, respectively. They were then mixed with an equal amount of Freund's incomplete adjuvant (IFA) using a glass syringe to prepare a water-in-oil emulsion. The resultant emulsion (200 μl) was injected into the HLA-A2402/K^b transgenic mouse subcutaneously in the base of the tail for immunization. Seven days after the initiation of experiment, the spleen was removed and grounded on the frosted part of glass slide, and splenocytes were recovered and prepared. A portion of the splenocytes undergone hemolysis treatment with an ACK buffer (0.15 M NH4Cl, 10 mM KHCO3, 0.1 mM EDTA, pH 7.2-7.4) was exposed to X ray radiation (2,000 rad), then pulsed with the above-mentioned peptide (100 μg/ml) for 1 hour, and seeded into a 24-well plate at 7×10^6/well. Simultaneously, non-radiated, non-peptide-pulsed splenocytes (7×10^5/well) were added together and stimulated in vitro at 37° C. for 6 days. The in vitro stimulation was carried out in RPMI1640 medium supplemented with 10% FCS, 10 mM HEPES, 20 mM L-glutamine, 1 mM sodium pyruvate, 1 mM MEM nonessential amino acids, 1% MEM vitamin and 55 μM 2-mercaptoethanol.
Then, the test for cytotoxic activity was conducted according to the conventional manner. Jurkat-A2402/K^b cells (Reference 8), and Jurkat-A2402/K^b cells pulsed with the peptide were used as target cells (T). These cells were labeled with ^51Cr (3.7 MBq/10^6 cells) and pulsed with the peptide at 100 μg/ml for one hour (The labeling was carried out over 2 hours, and 1 hour after the initiation of labeling, the peptide was added).

[2] = test system: Jurkat-A2402/K^b cells pulsed with the natural or non-substituted peptide; conditions: for cross-reactivity of effector cells induced by the substituted peptide to the non-substituted peptide (cytotoxic activity): mice immunized with peptide M or N, targets pulsed with peptide M or N, with peptide H, or without any peptide
Procedure: Cross-reactivity of the effector cells induced by the altered peptide to the natural peptide was tested. Effector cells induced by immunizing the mice with the altered form: peptide H (E) and target cells of the Jurkat-A2402/K^b cells pulsed with the natural form: peptide C (T) were combined and reacted at an E/T ratio of 80, and the cytotoxic activity was determined by ^51Cr release assay.
Cross-reactivity of the effector cells induced by the substituted peptide to the non-substituted peptide was tested. To effector cells induced by immunizing the mice with peptide M or N (E), target cells of the Jurkat-A2402/K^b cells pulsed with peptide M or N, with peptide H, or without any peptide (T) were reacted, and the cytotoxic activities of the effector cells were determined by ^51Cr release assay.

[3] = test system: C1R-A*2402 cells pulsed with the natural peptide of SEQ ID NO: 7; conditions: PBMC from HLA-A2402 positive healthy donors stimulated in vitro with 10 μM peptide; E/T ratio of 10, 20 or 40
Procedure: (§1) Peripheral blood mononuclear cells were separated from healthy donors positive for HLA-A2402, and were placed into wells of a 24-well plate at 4×10^6 cells/well. To the wells, the natural peptide of SEQ ID NO: 7 or the altered peptide of SEQ ID NO: 3 was added at a concentration of 10 μM, and the mixture was incubated for a week in a culture medium comprising 45% RPMI1640, 45% AIV, 10% inactivated human AB serum, 1× nonessential amino acids, 25 ng/ml 2-mercaptoethanol, […] streptomycin, and 50 U/ml penicillin. After the incubation, the cells were adjusted to 2×10^6 cells/well, which were used as responder cells hereafter. On the other hand, peripheral blood mononuclear cells separated from the same healthy donors were incubated together with 10 μM of either of these peptides for 4 hours to accomplish the pulsing with peptide, and then radiated at 30 Gy. The cells were adjusted to 4×10^6 cells/well, which were used as stimulator cells hereafter.
(§2) The responder cells and the stimulator cells thus prepared were mixed together, and the mixture was added with IL-2 at 30 U/ml, and incubated. A similar stimulation of the responder cells with the stimulator cells was conducted three times with an interval of a week. The cytotoxic activity in those cells thus obtained was determined by ^51Cr release assay wherein the cytotoxic activity was determined by reacting the C1R-A*2402 cells positive for an HLA-A24 (Int. J. Cancer, 81, p 387, 1999) labeled with ^51Cr that were pulsed with the natural peptide of SEQ ID NO: 7 as target cells (T), and the cells stimulated with the natural peptide of SEQ ID NO: 7 or the altered peptide of SEQ ID NO: 3 as described above (effector cells)(E) at an E/T ratio of 10, 20 or 40. […] Further, a lung cancer cell line positive for WT1 and positive for an HLA-A24, RERF-LC-AI cells; a lung cancer cell line positive for WT1 and negative for an HLA-A2402, 11-18 cells; or a lung cancer cell line negative for WT1 and positive for an HLA-A24, 11-18 cells were used as target cells to determine the cytotoxic activities of the effector cells described above in a similar manner by ^51Cr release assay.

RERF-LC-AI cells = conditions: PBMC effector cells stimulated with peptide, targets RERF-LC-AI (WT1+, HLA-A24+) versus WT1+/HLA-A2402- and WT1-/HLA-A24+ lung cancer lines (LK87, 11-18)
Procedure: as §1, §2

For RYFPNAPYL [peptide F], the “immunogenicity (activity to induce CTLs; cytotoxic activity, % Specific Lysis)” value [1] was “have a high immunogenicity; also recorded: specific CTLs were induced”.

For “ALLPAVPSL [peptide K, natural peptide, positions 10 to 18 of human WT1]”, the “immunogenicity (activity to induce CTLs; cytotoxic activity, % Specific Lysis)” value [1] was “have no immunogenicity; also recorded: no specific CTL was induced”.

With RYPSCQKKF [peptide H] the “cross-reactivity of effector cells induced by the altered peptide to the natural peptide (cytotoxic activity)” value ([2]; mice immunized with peptide H, targets pulsed with peptide H or natural peptide C, E/T ratio of 80) was “exhibited a cytotoxic activity against both cells pulsed with the altered and natural forms”.

In the case of “RWPSCQKKF [peptide C, natural peptide, positions 417 to 425 of human WT1]”, the “immunogenicity (activity to induce CTLs; cytotoxic activity, % Specific Lysis)” value [1] is reported as “have no immunogenicity; also recorded: no specific CTL was induced”.

With “AYLPAVPSL [peptide I, altered peptide K, position 2 altered into tyrosine]” the “immunogenicity (activity to induce CTLs; cytotoxic activity, % Specific Lysis)” value [1] was “have a high immunogenicity; also recorded: specific CTLs were induced”.

“AYPGCNKRYF [peptide E, natural peptide, positions 326 to 335 of human WT1]” was tested, and the “immunogenicity (activity to induce CTLs; cytotoxic activity, % Specific Lysis)” value [1] was “no specific CTL was induced”.

For RYPGVAPTL [peptide G], the “CTL-inducing activity (cytotoxic activity)” value [3] was “CTLs were induced” and the “cytotoxic activity of effector cells on lung cancer cell lines” value (“cytotoxic activity of effector cells” for short) (RERF-LC-AI cells) was “CTLs were induced”.

For RYPSSQKKF [peptide M], the “cross-reactivity of effector cells induced by the substituted peptide to the non-substituted peptide (cytotoxic activity)” value [2] was “exhibited a cytotoxic activity against all of the cells pulsed with the substituted peptides”.

For “CEA652-660: known HLA-A24-restricted cancer antigen peptide derived from CEA [reference compound]”, the “induction of specific CTLs (cytotoxic activity, % Specific Lysis)” value [1] was “induction of specific CTLs by stimulation with these known HLA-A24-resticted cancer antigen peptides was observed; also recorded: specific CTLs were induced”.

“QYRIHTHGVF [peptide D, natural peptide, positions 285 to 294 of human WT1]” was tested, and the “immunogenicity (activity to induce CTLs; cytotoxic activity, % Specific Lysis)” value [1] was “no specific CTL was induced”.

In the case of RYPSAQKKF [peptide N], the “cross-reactivity of effector cells induced by the substituted peptide to the non-substituted peptide (cytotoxic activity)” value [2] is reported as “exhibited a cytotoxic activity against all of the cells pulsed with the substituted peptides”.

“NYMNLGATL [peptide J, altered peptide L, position 2 altered into tyrosine]” was tested, and the “immunogenicity (activity to induce CTLs; cytotoxic activity, % Specific Lysis)” value [1] was “have a high immunogenicity; also recorded: specific CTLs were induced”.

For “CEA268-277: known HLA-A24-restricted cancer antigen peptide derived from CEA [reference compound]”, the “induction of specific CTLs (cytotoxic activity, % Specific Lysis)” value [1] was “induction of specific CTLs by stimulation with these known HLA-A24-resticted cancer antigen peptides was observed; also recorded: specific CTLs were induced”.

In the case of “HER-2/neu780-788: HLA-A24-restriced peptide derived from human tumor antigen HER-2/neu (PYVSRLLGI) [reference compound]”, the “induction of specific CTLs (cytotoxic activity, % Specific Lysis)” value [1] is reported as “induction of specific CTLs by stimulation with HER-2/neu780-788 was observed” and the “induction of specific CTLs (cytotoxic activity, % Specific Lysis)” value ([1]; listed as HER2/neu780-788) is reported as “specific CTLs were induced”.

“NQMNLGATL [peptide L, natural peptide, positions 239 to 247 of human WT1]” was tested, and the “immunogenicity (activity to induce CTLs; cytotoxic activity, % Specific Lysis)” value [1] was “have no immunogenicity; also recorded: no specific CTL was induced”.

In the case of “Arg-Tyr-Pro-Ser-Abu-Gln-Lys-Lys-Phe (RYPS[Abu]QKKF) [peptide O, peptide H with cysteine at position 5 substituted with α-aminobutyric acid]”, the “immunogenicity (cytotoxic activity, % Specific Lysis)” value ([1]; Example 5: HLA-A24 expressing transgenic mouse immunized with peptide, effector and target cells mixed at various E/T ratios) is reported as “immunogenicity equivalent to the non-substituted peptide, peptide H; also recorded: specific CTLs were induced”.

RVPGVAPTL [peptide B] was tested, and the “CTL-inducing activity (cytotoxic activity)” value [3] was “CTLs were induced”, the “cytotoxic activity of effector cells” value (RERF-LC-AI cells) was “CTLs were induced” and the “cytotoxic activity of effector cells” value (RERF-LC-AI cells; listed as SEQ ID NO: 7) was “specifically injured only the RERF-LC-AI cells”.

With “MAGE-3195-203: known HLA-A24-restricted cancer antigen peptide derived from MAGE-3 [reference compound]” the “induction of specific CTLs (cytotoxic activity, % Specific Lysis)” value [1] was “induction of specific CTLs by stimulation with these known HLA-A24-resticted cancer antigen peptides was observed; also recorded: specific CTLs were induced”.
